# Results published in patent publication US20240251788A1, “HERBICIDE/SAFENER COMBINATION BASED ON SAFENERS FROM THE CLASS OF SUBSTITUTED [(1,5-DIPHENYL-1H-1,2,4-TRIAZOL-3-YL)OXY]ACETIC ACIDS AND THEIR SALTS” (Bayer Aktiengesellschaft, priority 2021, published 2024).
# Tests used:
# [1] = system: summer wheat crop plant (TRZAS; cv. Triso); test: Reduction in herbicide damage to summer wheat by safener, greenhouse post-emergence application, visual scoring; type: in vivo; design: key to Reduction in the damage by safener (difference): difference in % visual damage (0-100% scale vs untreated) due to safener; conditions: summer wheat (TRZAS); for Damage to the plant by the herbicide (in %): without safener
# Protocol: (§1) The seeds of the crop plants to be treated are laid out in soil in woodfiber pots (diameter ˜ 7 cm), covered with soil and grown in a greenhouse under good conditions for germination and growth. The trial plants were treated at the early leaf stage (BBCH10-BBCH12).
# The herbicides used (component B) were used in the following formulations: • B2.81: WP • B2.85: WP • B2.92: WP • Cinmethylin: EC • Clomazone: WP • Ethofumesate: WP • Flufenacet: SC • Pinoxaden: WP • Saflufenacil: WP • Bicyclopyrone: WP • Picloram: WP • Metazachlor: SC • Flumioxazin: WP • Glyphosate potassium salt: SL • Topramezone: WP
# (§2) The dose of the respective herbicides was chosen here such that it causes an average degree of visually apparent damage (min. 20%, max. 75%) compared to untreated crop plants at the evaluation time on a control group of crop plants without safener treatment that were included in the same trial.
# (§3) In the respective herbicide/safener combinations, the safeners (component A) in the form of wettable powders (WP) were added in the dose specified; in these cases, herbicide and safener are thus applied as a mixture.
# (§4) Application was effected in each case on to the above-ground parts of the plant, at a water application rate corresponding to 300 l/ha and with addition of wetting agent (Mero, 1.5 l/h a).
# In the applications that contained pinoxaden, bicyclopyrone or topramezone, the herbicidal effect was enhanced by additionally adding ammonium sulfate (2 kg/ha).
# (§5) After application, the plants were cultivated under good growth conditions in a greenhouse. On account of the different mechanisms of action of the herbicides used, the damaging effect of the herbicides was fully manifested at different times depending on the herbicide, and this in turn forms the basis for assessment of the safener action in the mixtures. Therefore, the damage was scored visually, depending on the herbicide/mixture, between 11 and 21 days after application.
# (§6) The damage effect was assessed visually on a scale of 0-100% by comparison with untreated control plants, and averaged over 2 repeats per treatment.
# [2] = system: summer barley crop plant (HORVS: cv. Quench); test: Reduction in herbicide damage to summer barley by safener, greenhouse post-emergence application, visual scoring; type: in vivo; design: key to Reduction in the damage by safener (difference): difference in % visual damage, 0-100% scale vs untreated plants; conditions: summer barley (HORVS); for Damage to the plant by the herbicide (in %): without safener
# Protocol: as §1
# The herbicides used (component B) were used in the following formulations: • B2.81: WP • B2.85: WP • B2.92: WP • Clomazone: WP • Ethofumesate: WP • Flufenacet: SC • Fluroxypyr: EC • Saflufenacil: WP • Thiencarbazone-methyl: WP • Iodosulfuron-methyl-sodium: WP • Bifenox: WP • Glyphosate potassium salt: SL • Topramezone: WP
# as §2, §3, §4
# In the applications that contained pinoxaden or topramezone, the herbicidal effect was enhanced by additionally adding ammonium sulfate (2 kg/ha).
# as §5, §6
# [3] = herbicide B1.2 (bicyclopyrone) 400 g a.i./ha + safener 100 g a.i./ha
# [4] = herbicide B1.8 (pinoxaden) 200 g a.i./ha + safener 100 g a.i./ha
# [5] = herbicide B2.28 (flufenacet) 2000 g a.i./ha + safener 100 g a.i./ha
# [6] = herbicide B2.28 (flufenacet) 4000 g a.i./ha + safener 100 g a.i./ha
# [7] = herbicide B2.38 (metazachlor) 4000 g a.i./ha + safener 100 g a.i./ha
# [8] = herbicide B2.81 15 g a.i./ha + safener 100 g a.i./ha
# [9] = herbicide B4.28 (topramezone) 300 g a.i./ha + safener 100 g a.i./ha
# [10] = herbicide B5.13 (cinmethylin) 500 g a.i./ha + safener 100 g a.i./ha
# [11] = herbicide B5.13 (cinmethylin) 1000 g a.i./ha + safener 100 g a.i./ha
# [12] = herbicide B5.14 (clomazone) 200 g a.i./ha + safener 100 g a.i./ha
# [13] = herbicide B5.21 (ethofumesate) 2000 g a.i./ha + safener 100 g a.i./ha
# [14] = herbicide B5.26 (flumioxazin) 20 g a.i./ha + safener 100 g a.i./ha
# [15] = herbicide B6.5 (picloram) 400 g a.i./ha + safener 100 g a.i./ha
# [16] = herbicide B7.5 (glyphosate) 400 g a.i./ha + safener 100 g a.i./ha
# [17] = herbicide B2.34 (iodosulfuron) 10 g a.i./ha + safener 100 g a.i./ha
# [18] = herbicide B2.68 (thiencarbazone-methyl) 30 g a.i./ha + safener 100 g a.i./ha
# [19] = herbicide B2.85 5 g a.i./ha + safener 100 g a.i./ha
# [20] = herbicide B2.92 5 g a.i./ha + safener 100 g a.i./ha
# [21] = herbicide B6.4 (fluroxypyr) 500 g a.i./ha + safener 100 g a.i./ha
# [22] = herbicide B8.6 (bifenox) 600 g a.i./ha + safener 100 g a.i./ha
# [23] = herbicide B9.10 (saflufenacil) 10 g a.i./ha + safener 100 g a.i./ha
# [24] = herbicide B9.10 (saflufenacil) 20 g a.i./ha + safener 100 g a.i./ha
structure (smiles),measurement,setting,value
"COC(=O)COc1nc(-c2ccc(Cl)cc2F)n(-c2ccc(F)cc2F)n1 [Compound A3, methyl {[5-(4-chloro-2-fluorophenyl)-1-(2,4-difluorophenyl)-1H-1,2,4-triazol-3-yl]oxy}acetate]",Reduction in the damage by safener (difference),[1]; [3],25
same,Reduction in the damage by safener (in %),[1]; [3],42%
same,Reduction in the damage by safener (difference),[1]; [4],15
same,Reduction in the damage by safener (in %),[1]; [4],43%
same,Reduction in the damage by safener (difference),[1]; [5],30
same,Reduction in the damage by safener (in %),[1]; [5],100%
same,Reduction in the damage by safener (difference),[1]; [6],40
same,Reduction in the damage by safener (in %),[1]; [6],100%
same,Reduction in the damage by safener (difference),[1]; [7],30
same,Reduction in the damage by safener (in %),[1]; [7],75%
same,Reduction in the damage by safener (difference),[1]; [8],15
same,Reduction in the damage by safener (in %),[1]; [8],21%
same,Reduction in the damage by safener (difference),[1]; [9],20
same,Reduction in the damage by safener (in %),[1]; [9],50%
same,Reduction in the damage by safener (difference),[1]; [10],25
same,Reduction in the damage by safener (in %),[1]; [10],100%
same,Reduction in the damage by safener (difference),[1]; [11],25
same,Reduction in the damage by safener (in %),[1]; [11],100%
same,Reduction in the damage by safener (difference),[1]; [12],15
same,Reduction in the damage by safener (in %),[1]; [12],38%
same,Reduction in the damage by safener (difference),[1]; [13],70
same,Reduction in the damage by safener (in %),[1]; [13],100%
same,Reduction in the damage by safener (difference),[1]; [14],25
same,Reduction in the damage by safener (in %),[1]; [14],42%
same,Reduction in the damage by safener (difference),[1]; [15],20
same,Reduction in the damage by safener (in %),[1]; [15],80%
same,Reduction in the damage by safener (difference),[1]; [16],35
same,Reduction in the damage by safener (in %),[1]; [16],78%
same,Reduction in the damage by safener (difference),[2]; [5],15
same,Reduction in the damage by safener (in %),[2]; [5],50%
same,Reduction in the damage by safener (difference),[2]; [6],35
same,Reduction in the damage by safener (in %),[2]; [6],70%
same,Reduction in the damage by safener (difference),[2]; [17],25
same,Reduction in the damage by safener (in %),[2]; [17],56%
same,Reduction in the damage by safener (difference),[2]; [18],30
same,Reduction in the damage by safener (in %),[2]; [18],100%
same,Reduction in the damage by safener (difference),[2]; [8],70
same,Reduction in the damage by safener (in %),[2]; [8],100%
same,Reduction in the damage by safener (difference),[2]; [19],15
same,Reduction in the damage by safener (in %),[2]; [19],25%
same,Reduction in the damage by safener (difference),[2]; [20],30
same,Reduction in the damage by safener (in %),[2]; [20],46%
same,Reduction in the damage by safener (difference),[2]; [9],40
same,Reduction in the damage by safener (in %),[2]; [9],80%
same,Reduction in the damage by safener (difference),[2]; [13],60
same,Reduction in the damage by safener (in %),[2]; [13],100%
same,Reduction in the damage by safener (difference),[2]; [21],20
same,Reduction in the damage by safener (in %),[2]; [21],100%
same,Reduction in the damage by safener (difference),[2]; [16],50
same,Reduction in the damage by safener (in %),[2]; [16],83%
same,Reduction in the damage by safener (difference),[2]; [22],35
same,Reduction in the damage by safener (in %),[2]; [22],88%
"CCOC1Oc2ccc(OS(C)(=O)=O)cc2C1(C)C (stereo not shown) [Compound B5.21, ethofumesate, reference compound]",Damage to the plant by the herbicide (in %),[1]; herbicide dose 2000 g a.i./ha,70%
same,Damage to the plant by the herbicide (in %),[2]; herbicide dose 2000 g a.i./ha,60%
"O=C(O)CNCP(=O)(O)O [Compound B7.5, glyphosate, reference compound]",Damage to the plant by the herbicide (in %),[1]; herbicide dose 400 g a.i./ha,45%
same,Damage to the plant by the herbicide (in %),[2]; herbicide dose 400 g a.i./ha,60%
"COC(=O)COc1nc(-c2ccc(Cl)cc2F)n(-c2ccc(Cl)cc2F)n1 [Compound A1, methyl {[1,5-bis(4-chloro-2-fluorophenyl)-1H-1,2,4-triazol-3-yl]oxy}acetate]",Reduction in the damage by safener (difference),[1]; [4],25
same,Reduction in the damage by safener (in %),[1]; [4],71%
same,Reduction in the damage by safener (difference),[1]; [8],70
same,Reduction in the damage by safener (in %),[1]; [8],100%
same,Reduction in the damage by safener (difference),[1]; [19],60
same,Reduction in the damage by safener (in %),[1]; [19],100%
same,Reduction in the damage by safener (difference),[1]; [20],60
same,Reduction in the damage by safener (in %),[1]; [20],100%
same,Reduction in the damage by safener (difference),[1]; [12],20
same,Reduction in the damage by safener (in %),[1]; [12],50%
same,Reduction in the damage by safener (difference),[1]; [13],70
same,Reduction in the damage by safener (in %),[1]; [13],100%
same,Reduction in the damage by safener (difference),[1]; [23],15
same,Reduction in the damage by safener (in %),[1]; [23],43%
same,Reduction in the damage by safener (difference),[1]; [24],15
same,Reduction in the damage by safener (in %),[1]; [24],38%
same,Reduction in the damage by safener (difference),[2]; [18],30
same,Reduction in the damage by safener (in %),[2]; [18],100%
same,Reduction in the damage by safener (difference),[2]; [8],70
same,Reduction in the damage by safener (in %),[2]; [8],100%
same,Reduction in the damage by safener (difference),[2]; [19],50
same,Reduction in the damage by safener (in %),[2]; [19],83%
same,Reduction in the damage by safener (difference),[2]; [20],65
same,Reduction in the damage by safener (in %),[2]; [20],100%
same,Reduction in the damage by safener (difference),[2]; [12],30
same,Reduction in the damage by safener (in %),[2]; [12],75%
same,Reduction in the damage by safener (difference),[2]; [13],60
same,Reduction in the damage by safener (in %),[2]; [13],100%
same,Reduction in the damage by safener (difference),[2]; [21],20
same,Reduction in the damage by safener (in %),[2]; [21],100%
same,Reduction in the damage by safener (difference),[2]; [24],20
same,Reduction in the damage by safener (in %),[2]; [24],50%
